{
  "source": "patent US20130011462A1",
  "about": "“MELT EXTRUDED NICOTINE THIN STRIPS” (Novartis AG, priority 2009, published 2013)",
  "key": {"[1]": {"procedure": "During thermo-gravimetric analysis (TGA), the weight of a sample is measured very accurately as the sample is undergoing a temperature program (usually a gradual increase in temperature). Changes in the sample that result in weight differences will be detected, and can be correlated to temperature. This technique was used to investigate the onset temperatures of dehydration and degradation of the nicotine salt.\nTable 4 details the temperature program for this study. The sample was heated from 30 to 950° C. under nitrogen (inert gas) or air."}, "[2]": {"procedure": "The sample weight was monitored for 20 minutes at probable extrusion temperatures of 50, 55 and 60° C. This duration is longer than expected process time for small batches including hold time in hoppers.", "remark": "listed apart in the source"}},
  "note": "Where two headings read alike, the source gives them in different places.",
  "data": [
    {"smiles": "CN1CCCC1c1cccnc1.O.O.O=C(O)C(O)C(O)C(=O)O", "note": "(centres unmarked) [Nicotine bitartrate dihydrate]", "values": [
      {"measurement": "First Event Onset Temperature", "setting": "[1]; Air purged sample", "result": 73.93, "unit": "°C"},
      {"measurement": "Second Event Onset Temperature", "setting": "[1]; Air purged sample", "result": 190.23, "unit": "°C"},
      {"measurement": "First Event Onset Temperature", "setting": "[1]; Nitrogen purged sample", "result": 72.54, "unit": "°C"},
      {"measurement": "Second Event Onset Temperature", "setting": "[1]; Nitrogen purged sample", "result": 190.78, "unit": "°C"},
      {"measurement": "first TGA event inflection", "setting": "[1]; scan 30 to 950 °C", "result": 82, "unit": "°C"},
      {"measurement": "first TGA event onset", "setting": "[1]; scan 30 to 950 °C", "result": 73, "unit": "°C"},
      {"measurement": "second TGA event inflection", "setting": "[1]; scan 30 to 950 °C", "result": 203, "unit": "°C"},
      {"measurement": "weight loss, first TGA event", "setting": "[1]; scan 30 to 950 °C", "result": "about 4%"},
      {"measurement": "weight loss after isothermal hold", "setting": "[2]; 20 minute hold at 50 °C", "result": 0.497, "unit": "%"},
      {"measurement": "weight loss after isothermal hold", "setting": "[2]; 20 minute hold at 55 °C", "result": 0.678, "unit": "%"},
      {"measurement": "weight loss after isothermal hold", "setting": "[2]; 20 minute hold at 60 °C", "result": 1.147, "unit": "%"}
    ]}
  ]
}
